{"source": "PubChem BioAssay AID330", "about": "(DTP/NCI, 2004)", "test_system": "P388 leukemia ip, CD2F1 mice, survival T/C", "assay": "NCI In Vivo Anticancer Drug Screen. Data for tumor model P388 Leukemia (intraperitoneal) in CD2F1 (CDF1) mice", "settings": "endpoint: median survival time, higher = longer survival", "how_it_was_run": "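Mice carrying the transplanted tumor received test compound or vehicle. Survival was recorded in each group, and the value is the treated-group measurement divided by that of the vehicle-treated control group.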", "key": {"[1]": {"settings": "dose: 50.0 mg/kg/injection, schedule: Q01DX005 (ip), vehicle: saline with Tween-80"}, "[2]": {"settings": "dose: 100.0 mg/kg/injection, schedule: Q01DX005 (ip), vehicle: saline with Tween-80"}, "[3]": {"settings": "dose: 200.0 mg/kg/injection, schedule: Q01DX005 (ip), vehicle: saline with Tween-80"}, "[4]": {"settings": "dose: 60.0 mg/kg/injection, schedule: Q01DX005 (ip), vehicle: saline with Tween-80"}, "[5]": {"settings": "dose: 120.0 mg/kg/injection, schedule: Q01DX005 (ip), vehicle: saline with Tween-80"}, "[6]": {"settings": "dose: 240.0 mg/kg/injection, schedule: Q01DX005 (ip), vehicle: saline with Tween-80"}}, "note": "Inconclusive results and toxic doses are left out.", "data": [{"molecule": "CCOC(=O)Cc1cc2c(cc1C)CN=C(OCC)C2", "values": [{"measurement": "T/C", "setting": "dose: 6.25 mg/kg/injection, schedule: Q01DX009 (ip), vehicle: distilled water + Tween-80", "value": "100 % of control"}, {"measurement": "T/C", "setting": "dose: 12.5 mg/kg/injection, schedule: Q01DX009 (ip), vehicle: distilled water + Tween-80", "value": "103 % of control"}, {"measurement": "T/C", "setting": "dose: 25.0 mg/kg/injection, schedule: Q01DX009 (ip), vehicle: distilled water + Tween-80", "value": "94 % of control"}, {"measurement": "T/C", "setting": "dose: 50.0 mg/kg/injection, schedule: Q01DX009 (ip), vehicle: distilled water + Tween-80", "value": "91 % of control"}, {"measurement": "T/C", "setting": "dose: 100.0 mg/kg/injection, schedule: Q01DX009 (ip), vehicle: distilled water + Tween-80", "value": "91 % of control"}, {"measurement": "T/C", "setting": "dose: 200.0 mg/kg/injection, schedule: Q01DX009 (ip), vehicle: distilled water + Tween-80", "value": "90 % of control"}, {"measurement": "T/C", "setting": "dose: 400.0 mg/kg/injection, schedule: Q01DX009 (ip), vehicle: distilled water + Tween-80", "value": "100 % of control"}]}, {"molecule": "Cc1cc(NC(=O)C(=O)CC(=O)c2cccnc2)no1", "values": [{"measurement": "T/C", "setting": "[1]", "value": "102 % of control"}, {"measurement": "T/C", "setting": "[2]", "value": "101 % of control"}, {"measurement": "T/C", "setting": "[3]", "value": "101 % of control"}]}, {"molecule": "CCC/C(C)=N/NC(=S)SC", "values": [{"measurement": "T/C", "setting": "dose: 6.25 mg/kg/injection, schedule: Q01DX009 (ip), vehicle: saline", "value": "100 % of control"}, {"measurement": "T/C", "setting": "dose: 12.5 mg/kg/injection, schedule: Q01DX009 (ip), vehicle: saline", "value": "98 % of control"}, {"measurement": "T/C", "setting": "dose: 25.0 mg/kg/injection, schedule: Q01DX009 (ip), vehicle: saline", "value": "98 % of control"}]}, {"molecule": "CCc1cccc(CC)c1NC(=O)c1ccccc1Br", "values": [{"measurement": "T/C", "setting": "[4]", "value": "97 % of control"}, {"measurement": "T/C", "setting": "[5]", "value": "96 % of control"}, {"measurement": "T/C", "setting": "[6]", "value": "112 % of control"}]}, {"molecule": "O=C(OC1C2C=CC1C1C3CCC(c4ccccc43)C21)c1ccc([N+](=O)[O-])cc1[N+](=O)[O-]", "note": "(configuration not stated)", "values": [{"measurement": "T/C", "setting": "dose: 100.0 mg/kg/injection, schedule: Q04DX002 (ip), vehicle: saline", "value": "103 % of control"}, {"measurement": "T/C", "setting": "dose: 200.0 mg/kg/injection, schedule: Q04DX002 (ip), vehicle: saline", "value": "99 % of control"}, {"measurement": "T/C", "setting": "dose: 400.0 mg/kg/injection, schedule: Q04DX002 (ip), vehicle: saline", "value": "100 % of control"}]}, {"molecule": "CN(C)C1C(=O)c2ccccc2C1=O", "values": [{"measurement": "T/C", "setting": "[4]", "value": "96 % of control"}, {"measurement": "T/C", "setting": "[5]", "value": "107 % of control"}, {"measurement": "T/C", "setting": "[6]", "value": "112 % of control"}]}, {"molecule": "CCSCC1C(=O)C23C(O)C1CCC2C12COC3(O)C(O)C1C(C)(C)CCC2O", "note": "(configuration not stated)", "values": [{"measurement": "T/C", "setting": "dose: 22.5 mg/kg/injection, schedule: Q01DX009 (ip), vehicle: saline with Tween-80", "value": "108 % of control"}, {"measurement": "T/C", "setting": "dose: 45.0 mg/kg/injection, schedule: Q01DX009 (ip), vehicle: saline with Tween-80", "value": "112 % of control"}, {"measurement": "T/C", "setting": "dose: 90.0 mg/kg/injection, schedule: Q01DX009 (ip), vehicle: saline with Tween-80", "value": "94 % of control"}]}, {"molecule": "O=C1N(Cc2ccccc2)[C@H]2CS(=O)(=O)C[C@@H]2N1Cc1ccccc1", "values": [{"measurement": "T/C", "setting": "[1]", "value": "87 % of control"}, {"measurement": "T/C", "setting": "[2]", "value": "92 % of control"}, {"measurement": "T/C", "setting": "[3]", "value": "86 % of control"}]}, {"molecule": "COC(=O)CC(O)(CCCC(C)(C)O)C(=O)OC1C(OC)=CC23CCCN2CCc2cc4c(cc2C13)OCO4", "note": "(configuration not stated) (tested in a mixture with another compound)", "values": [{"measurement": "T/C", "setting": "dose: 0.5 mg/kg/injection, schedule: Q01DX009 (ip), vehicle: saline with Tween-80", "value": "153 % of control"}, {"measurement": "T/C", "setting": "dose: 1.0 mg/kg/injection, schedule: Q01DX009 (ip), vehicle: saline with Tween-80", "value": "201 % of control"}, {"measurement": "T/C", "setting": "dose: 2.0 mg/kg/injection, schedule: Q01DX009 (ip), vehicle: saline with Tween-80", "value": "206 % of control"}]}, {"molecule": "CCCCC(CC)CSCN(CC)CC", "note": "(configuration not stated)", "values": [{"measurement": "T/C", "setting": "dose: 50.0 mg/kg/injection, schedule: Q01DX009 (ip), vehicle: saline", "value": "100 % of control"}, {"measurement": "T/C", "setting": "dose: 100.0 mg/kg/injection, schedule: Q01DX009 (ip), vehicle: saline", "value": "102 % of control"}, {"measurement": "T/C", "setting": "dose: 200.0 mg/kg/injection, schedule: Q01DX009 (ip), vehicle: saline", "value": "112 % of control"}]}, {"molecule": "Nc1ccc(S(=O)(=O)c2cc(O)c3ccccc3c2O)cc1", "values": [{"measurement": "T/C", "setting": "dose: 50.0 mg/kg/injection, schedule: Q01DX009 (ip), vehicle: Klucel (hydroxypropylcellulose) (HPC)", "value": "104 % of control"}]}, {"molecule": "CC(C)(CCC(=O)O)C(=O)O", "values": [{"measurement": "T/C", "setting": "dose: 50.0 mg/kg/injection, schedule: Q01DX009 (ip), vehicle: saline sonified", "value": "91 % of control"}, {"measurement": "T/C", "setting": "dose: 200.0 mg/kg/injection, schedule: Q01DX009 (ip), vehicle: saline sonified", "value": "87 % of control"}]}]}
